Measured values from PMC4393181, “The Chemopotential Effect of Annona muricata Leaves against Azoxymethane-Induced Colonic Aberrant Crypt Foci in Rats and the Apoptotic Effect of Acetogenin Annomuricin E in HT-29 Cells: A Bioassay-Guided Approach” (PLoS ONE, 2015).
Converted amounts (≈) assume the structure as drawn. Like-named read-outs stand apart in the source and are kept apart here.

Key:
AOM-induced colonic ACF = assay: Counting of AOM-induced colonic aberrant crypt foci (methylene blue staining); assay type: in vivo, Sprague Dawley rats; conditions: group E
Procedure: The experiment was performed as previously described in detail. Thirty male rats (n = 6 per group) in five groups (negative control, cancer control, low dose of EEAML, high dose of EEAML and treatment control) were subcutaneously injected once a week for two consecutive weeks according to the “Induction” column in Table 1. Then, all of the rodents were orally fed once a day for two months based on the experimental design (Table 1), except for the treatment control group, which was intra-peritoneally injected with 35 mg/kg of 5-FU (Sigma, St. Louis, MO, USA) for five consecutive days. The condition of the animals was observed every morning throughout the experimental period.
To determine the intensity of colonic ACF formation after 10 weeks of injection with AOM, ACF counting was performed as previously described in detail. In brief, rats were anesthetized with a high dose of ketamine (30 mg/kg, 100 mg/mL) and xylazine (3 mg/kg, 100 mg/mL) under aseptic conditions. The excised colon was flushed with phosphate buffered saline (PBS, Sigma), opened longitudinally and fixed flat between filter papers overnight at 4°C using 10% buffered formalin. Equal lengths of the proximal and distal portions of the fixed colons were stained with 0.5% methylene blue solution. After washing away the excess stain, topographic analysis was performed under a light microscope (Nikon, Tokyo, Japan) to score the total number of ACF, as well as the number of crypts per focus.

PCNA = assay: Immunohistochemistry of colon tissue sections, PCNA labeling index; assay type: in vivo, Sprague Dawley rats; conditions: 5-FU 35 mg/kg, colon tissue of AOM-induced rats (cancer control PI 81%, negative control 4%)
Procedure: (§1) Immunohistochemical evaluation of proliferating cell nuclear antigen (PCNA), Bax and Bcl-2 proteins was performed on deparaffinized tissue sections using the commercial Dako ARK Peroxidase kit (DAKO, Carpinteria, CA, USA) according to the vendor’s instructions. In brief, the antigen retrieval process of tissue sections was performed using 10 mM citrate buffer (pH 6.0); the tissue sections were then washed with PBS and blocked with peroxidase blocking buffer. Next, the tissue sections were incubated with diluted mouse PCNA (1:100, Cat: ab2426), Bax (1:100, Cat: ab7977) and Bcl-2 (1:100, Cat: ab7973) antibodies (Abcam, Cambridge, MA, USA) for 15 min. All of the slides were then incubated with the appropriate amount of streptavidin-HRP for 30 min at room temperature. The slides were developed with a diaminobenzidine (DAB) substrate-chromogen system and were counterstained in hematoxylin. The measurement of the PCNA labeling index (PI) was calculated using the formula below.
PI = number of positive cells/total number of epithelial cells ×100

Bax = assay: Immunohistochemistry of colon tissue sections for Bax; assay type: in vivo, Sprague Dawley rats; conditions: AOM-induced rats; EEAML both doses (250 and 500 mg/kg), 5-FU 35 mg/kg
Procedure: as §1

Bcl-2 = assay: Immunohistochemistry of colon tissue sections for Bcl-2; assay type: in vivo, Sprague Dawley rats; conditions: AOM-induced rats; EEAML both doses (250 and 500 mg/kg), 5-FU 35 mg/kg
Procedure: as §1

[1] = tested on: HT-29 (human colon cancer cells); assay: MTT assay on HT-29 cells; assay type: cell-based; conditions: Homo sapiens, mean ± SEM of three experiments, read-out: IC50
Procedure: (§2) CCD841 (normal human colon epithelial cells) and HT-29 (human colon cancer cells) were purchased from the American Type Cell Collection (ATCC, Manassas, VA, USA). The cells were maintained at 37°C in a humidified atmosphere of 5% CO2. The culture medium consisted of Dulbecco’s Modified Eagles medium (Sigma) that was supplemented with 10% Fetal Bovine Serum (PAA Laboratories, Pasching, […]), 100 μg/ml streptomycin (Sigma) and 100 U/ml penicillin (Sigma). The untreated medium containing 0.1% vehicle DMSO was applied as the negative control for all of the assays in the in vitro study.
(§3) Cell viability analysis was performed using the MTT assay as described previously. In brief, cells (5 × 10^4 cells/ml) at the exponential phase of growth were seeded in a 96-well plate and treated with serial concentrations of the tested agent (0.62, 1.25, 2.5, 5, 10, 20, 40 and 80 μg/ml) for 12, 24 and 48 h. 5-FU, a standard anticancer drug, was used as a positive control in this assay. After incubation, 20 μl of the MTT solution (5.0 mg/ml, Sigma) was loaded into each well, and the cells were further incubated at 37°C for 4 h. DMSO (150 μl) was then used to dissolve the formazan crystals. The cytotoxicity against cancer and normal cells was measured at the absorbance of 570 nm using an ELISA reader (Asys UVM340, Eugendorf, Austria). The data were then processed, and the antiproliferative potential of the tested agents was expressed as IC50 values, the concentration that causes a 50% inhibition of cell growth.

[2] = tested on: CCD841 (normal human colon epithelial cells); assay: MTT assay on CCD841 cells; assay type: cell-based; conditions: Homo sapiens, mean ± SEM of three experiments, read-out: IC50
Procedure: as §2, §3

[3] = 5-FU 35 mg/kg intra-peritoneally for five consecutive days, AOM-induced rats

With `O=c1[nH]cc(F)c(=O)[nH]1` [5-FU, 5-fluorouracil] as the compound, how does the “No. of crypts per ACF: 1 crypt” value (AOM-induced colonic ACF; [3]) read?
The value was 12 ± 0.26.

What about the “No. of crypts per ACF: 2 crypt” value (AOM-induced colonic ACF; [3]) of the same compound?
The value was 6 ± 0.45.

What about the “No. of crypts per ACF: 3 crypt” value (AOM-induced colonic ACF; [3]) of the same compound?
Its value is 7 ± 0.78.

What about the “No. of crypts per ACF: 4 crypt and more” value (AOM-induced colonic ACF; [3]) of the same compound?
The value was 4 ± 0.18.

What about the “Total ACF” value (AOM-induced colonic ACF; [3]) of the same compound?
The value was 29 ± 1.40.

And the “Inhibition of ACF formation” value (AOM-induced colonic ACF; 5-FU 35 mg/kg intra-peritoneally, compared with cancer control)?
Its value is 79.5%.

What about the “PCNA labeling index (PI)” value (PCNA) of the same compound?
Its value is 24%.

What about the “Bax expression in colon tissues” value (Bax) of the same compound?
Its value is “up-regulation”.

And the “Bcl-2 expression in colon tissues” value (Bcl-2)?
Its value is “down-regulation”.

What about the IC50 ([1]; HT-29, 12 h) of the same compound?
The IC50 was 4.85 ± 0.38 µg/mL (≈ 37.3 µM).

And the IC50 ([1]; HT-29, 24 h)?
Its IC50 is 2.96 ± 0.43 µg/mL (≈ 22.8 µM).

And the IC50 ([1]; HT-29, 48 h)?
The IC50 was 1.5 ± 0.17 µg/mL (≈ 11.5 µM).

What about the IC50 ([2]; CCD-841, CCD841, 12 h) of the same compound?
The IC50 was 58.5 ± 2.09 µg/mL (≈ 450 µM).

What about the IC50 ([2]; CCD-841, CCD841, 24 h) of the same compound?
Its IC50 is 44.4 ± 2.25 µg/mL (≈ 341 µM).

What about the IC50 ([2]; CCD-841, CCD841, 48 h) of the same compound?
The IC50 was 36.3 ± 0.43 µg/mL (≈ 279 µM).
